Results: US20230322767A1, “ARYL SUBSTITUTED PYRROLO-PYRIDINONES AND THERAPEUTIC USES THEREOF” (Bayer Aktiengesellschaft, priority 2020, published 2023)
Read-outs that look alike come from different tables or passages of the source.

Assays:
Format in all cases: biochemical
CSNK1A1 = CSNK1A1 (Homo sapiens (Human), UniProt P48729); assay: CSNK1A1 Assay 2 (ADP-Glo, 1 μM ATP); details: median, read-out: CSNK1A1 Assay 2 IC50 [mol/l] (median)
Summary of the method: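 Enzyme (~0.0375 ng/μL) preincubated 15 min at 22° C with compound in HEPES pH 7.5 buffer, then reacted with 1 μM ATP and biotin-Ahx-KRRRAL-pS-VASLPGL peptide. ADP product measured by ADP-Glo luminescence after 1 h ATP depletion and 1 h detection at 22° C.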

CSNK1D = CSNK1D (Homo sapiens (Human), UniProt P48730); assay: CSNK1D Assay (ADP-Glo, 1 μM ATP); details: median, read-out: CSNK1D IC50 [mol/l] (median)
Chain of CSNK1D (P48730 whole entry): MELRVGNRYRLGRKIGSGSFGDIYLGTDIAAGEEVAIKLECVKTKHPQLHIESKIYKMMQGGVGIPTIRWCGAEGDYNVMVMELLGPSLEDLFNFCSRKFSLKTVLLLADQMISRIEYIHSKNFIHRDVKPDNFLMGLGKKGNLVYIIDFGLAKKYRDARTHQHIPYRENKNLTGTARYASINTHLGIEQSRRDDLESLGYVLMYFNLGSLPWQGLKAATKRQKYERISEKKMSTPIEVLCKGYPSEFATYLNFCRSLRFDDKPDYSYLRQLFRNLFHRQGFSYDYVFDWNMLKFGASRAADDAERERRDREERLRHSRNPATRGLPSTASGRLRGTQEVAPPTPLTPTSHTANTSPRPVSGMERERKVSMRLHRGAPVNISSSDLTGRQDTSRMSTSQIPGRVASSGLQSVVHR
Summary of the method: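 Enzyme preincubated with compound 15 min at 22° C in 50 mM HEPES pH 7.5 buffer with 10 mM MgCl2, 1 mM DTT; kinase reaction run at 1 μM ATP with biotinylated peptide substrate. ADP formed was detected by ADP-Glo luminescence as the measure of activity.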

[1] = target: wild-type Epidermal Growth Factor Receptor (EGFR) (Homo sapiens (Human), UniProt P00533); assay: WT-EGFR Kinase Assay (TR-FRET, 2 mM ATP)
Chain of wild-type Epidermal Growth Factor Receptor (EGFR) (P00533 669-1210): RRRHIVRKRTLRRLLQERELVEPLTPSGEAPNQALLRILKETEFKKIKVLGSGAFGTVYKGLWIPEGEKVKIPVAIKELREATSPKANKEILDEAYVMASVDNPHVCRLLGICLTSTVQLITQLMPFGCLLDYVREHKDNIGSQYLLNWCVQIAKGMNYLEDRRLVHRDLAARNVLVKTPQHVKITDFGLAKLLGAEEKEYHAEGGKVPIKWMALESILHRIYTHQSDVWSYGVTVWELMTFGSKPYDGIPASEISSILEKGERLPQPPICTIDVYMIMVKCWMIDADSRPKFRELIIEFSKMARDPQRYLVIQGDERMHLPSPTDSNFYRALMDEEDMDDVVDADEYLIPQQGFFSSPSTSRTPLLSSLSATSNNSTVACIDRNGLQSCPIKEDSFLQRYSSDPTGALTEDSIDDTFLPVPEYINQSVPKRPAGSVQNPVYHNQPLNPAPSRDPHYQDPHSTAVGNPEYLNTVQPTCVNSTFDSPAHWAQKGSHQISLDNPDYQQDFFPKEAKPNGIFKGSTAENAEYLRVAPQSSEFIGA
Summary of the method: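 GST-tagged human EGFR (R669–A1210, Sf9-expressed) preincubated 15 min at 22° C with compound in pH 7.0 Hepes/MgCl2 buffer, then reacted at 2 mM ATP with a biotinylated peptide substrate. Phosphorylation detected by TR-FRET (streptavidin-XL665, Tb-cryptate anti-phosphotyrosine) as the 665/620 nm emission ratio.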

[2] = EGFR Wildtyp 2 mM ATP IC50 [mol/l] (median), median or individual measurements
[3] = read-out: EGFR Wildtyp 2 mM ATP IC50 [mol/l] (median), median or individual measurements

Chain of CSNK1A1 (P48729 whole entry): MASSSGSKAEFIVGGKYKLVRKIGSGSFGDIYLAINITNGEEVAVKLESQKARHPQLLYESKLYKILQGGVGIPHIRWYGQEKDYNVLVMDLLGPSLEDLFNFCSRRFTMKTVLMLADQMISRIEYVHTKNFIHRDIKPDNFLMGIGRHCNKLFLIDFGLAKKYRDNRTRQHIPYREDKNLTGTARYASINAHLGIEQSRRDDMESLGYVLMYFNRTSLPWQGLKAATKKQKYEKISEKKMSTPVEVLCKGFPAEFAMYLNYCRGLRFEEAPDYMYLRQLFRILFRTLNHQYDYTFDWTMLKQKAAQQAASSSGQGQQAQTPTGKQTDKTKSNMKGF

Compound `CC(C(=O)Nc1cc(-c2[nH]c3c(c2-c2ccccc2)C(=O)NCC3)ccn1)c1ccc(F)cc1` (racemic) [Example 74, 2-(4-fluorophenyl)-N-[4-(4-oxo-3-phenyl-4,5,6,7-tetrahydro-1H-pyrrolo[3,2-c]pyridin-2-yl)pyridin-2-yl]propanamide] has an IC50 (CSNK1A1) of 1.6 nM, an IC50 (CSNK1D) of 3 nM and an IC50 [1, 2] of over 20000 nM.

Work on `CN1CC(C)(C)c2[nH]c(-c3ccnc(NC(=O)C(CC(F)F)c4ccc(F)cc4)c3)c(-c3ccccc3)c2C1=O` (racemic) [Example 150, (rac)-4,4-difluoro-2-(4-fluorophenyl)-N-[4-(5,7,7-trimethyl-4-oxo-3-phenyl-4,5,6,7-tetrahydro-1H-pyrrolo[3,2-c]pyridin-2-yl)pyridin-2-yl]butanamide] yielded an IC50 (CSNK1A1) of 4.1 nM, an IC50 (CSNK1D) of 3.8 nM and an IC50 [1, 2] of over 20000 nM.

Work on `CC1(C)Cc2[nH]c(-c3ccnc(NC(=O)Cc4ccc(F)cc4)c3)c(-c3cccnc3)c2C(=O)N1` [Example 93, N-{4-[6,6-dimethyl-4-oxo-3-(pyridin-3-yl)-4,5,6,7-tetrahydro-1H-pyrrolo[3,2-c]pyridin-2-yl]pyridin-2-yl}-2-(4-fluorophenyl)acetamide] yielded an IC50 (CSNK1A1) of 4 nM, an IC50 (CSNK1D) of 9.3 nM and an IC50 [1, 3] of over 20000 nM.

Work on `CC(C(=O)Nc1cc(-c2[nH]c3ccn(C)c(=O)c3c2-c2cccnc2F)ccn1)c1ccc(F)cc1` (racemic) [Example 110, 2-(4-fluorophenyl)-N-{4-[3-(2-fluoropyridin-3-yl)-5-methyl-4-oxo-4,5-dihydro-1H-pyrrolo[3,2-c]pyridin-2-yl]pyridin-2-yl}propanamide] yielded an IC50 (CSNK1A1) of 30 nM, an IC50 (CSNK1D) of 21 nM and an IC50 [1, 2] of over 20000 nM.

For `COCCNC(=O)c1ccc(CC(=O)Nc2cc(-c3[nH]c4ccn(C)c(=O)c4c3-c3ccc(F)cc3)ccn2)cc1` [Example 142, 4-[2-({4-[3-(4-fluorophenyl)-5-methyl-4-oxo-4,5-dihydro-1H-pyrrolo[3,2-c]pyridin-2-yl]pyridin-2-yl}amino)-2-oxoethyl]-N-(2-methoxyethyl)benzamide], the IC50 (CSNK1A1) was 2.7 nM, the IC50 (CSNK1D) was 3.8 nM and the IC50 [1, 3] was over 20000 nM.

`CC(C(=O)Nc1cc(-c2[nH]c3c(c2-c2ccc(Cl)cc2)C(=O)NC(C)(C)C3)ccn1)c1ccc(F)cc1` (racemic) [Example 89, N-{4-[3-(4-chlorophenyl)-6,6-dimethyl-4-oxo-4,5,6,7-tetrahydro-1H-pyrrolo[3,2-c]pyridin-2-yl]pyridin-2-yl}-2-(4-fluorophenyl)propanamide] gave an IC50 (CSNK1A1) of 6.8 nM, an IC50 (CSNK1D) of 4.3 nM and an IC50 [1, 2] of over 20000 nM.

For `CN1CCc2[nH]c(-c3ccnc(NC(=O)C(CC(F)F)c4ccc(F)cc4)c3)c(-c3ccc(F)cc3F)c2C1=O` (single isomer, unassigned) [Example 67, N-{4-[3-(2,4-difluorophenyl)-5-methyl-4-oxo-4,5,6,7-tetrahydro-1H-pyrrolo[3,2-c]pyridin-2-yl]pyridin-2-yl}-4,4-difluoro-2-(4-fluorophenyl)butanamide], the IC50 (CSNK1A1) was 16 nM, the IC50 (CSNK1D) was 8.6 nM and the IC50 [1, 2] was over 20000 nM.

Work on `CC(C(=O)Nc1cc(-c2[nH]c3ccn(C)c(=O)c3c2-c2ccc(Cl)s2)ccn1)c1ccc(F)cc1` (racemic) [Example 122, N-{4-[3-(5-chloro-2-thienyl)-5-methyl-4-oxo-4,5-dihydro-1H-pyrrolo[3,2-c]pyridin-2-yl]pyridin-2-yl}-2-(4-fluorophenyl)propanamide] yielded an IC50 (CSNK1A1) of 3.6 nM, an IC50 (CSNK1D) of 9 nM and an IC50 [1, 2] of over 5710 nM. For the same compound, the IC50 [1, 3] was over 5710 nM.

In the case of `O=C(Nc1cc(-c2[nH]c3ccn(C4CC4)c(=O)c3c2-c2ccc(F)cc2)ccn1)C(CC(F)F)c1ccc(F)cc1` (racemic) [Example 134, N-{4-[5-cyclopropyl-3-(4-fluorophenyl)-4-oxo-4,5-dihydro-1H-pyrrolo[3,2-c]pyridin-2-yl]pyridin-2-yl}-4,4-difluoro-2-(4-fluorophenyl)butanamide], the IC50 (CSNK1A1) is reported as 5.5 nM, the IC50 (CSNK1D) is reported as 7 nM and the IC50 [1, 2] is reported as over 20000 nM.

With `Cc1ccc(-c2c(-c3ccnc(NC(=O)Cc4ccc(F)cc4)c3)[nH]c3c2C(=O)NC(C)(C)C3)cc1` [Example 92, N-{4-[6,6-dimethyl-3-(4-methylphenyl)-4-oxo-4,5,6,7-tetrahydro-1H-pyrrolo[3,2-c]pyridin-2-yl]pyridin-2-yl}-2-(4-fluorophenyl)acetamide] the IC50 (CSNK1A1) was 4.5 nM, the IC50 (CSNK1D) was 5.7 nM and the IC50 [1, 3] was over 20000 nM.
